Data set [1] has as its system high sensitivity C-reactive protein. The experiment in a line: Inflammatory biomarkers in the FDG-PET/CT study. It counts as in vivo, human. The settings on record: 7.5 mg BID versus placebo; 95% CI −46, −5; p=0.023. The protocol: The primary objective was to measure in-vivo macrophage activity, by fluorodeoxyglucose (FDG) positron emission tomography (PET)/computed tomography (CT) imaging, in carotid arteries and aorta following a 12-week treatment with losmapimod (7.5 mg once daily [QD] and 7.5 mg twice daily [BID]), in the setting of chronic statin therapy, as compared to placebo. Secondary objectives included safety and tolerability of 12 weeks of dosing with losmapimod (7.5 mg QD or 7.5 mg BID). Inflammatory biomarkers and the effect of losmapimod 7.5 mg QD vs 7.5 mg BID on in-vivo macrophage activity, as assessed by FDG-PET/CT imaging. Ninety-nine patients with vascular inflammation on statins were randomised to losmapimod 7.5 mg once daily (QD), twice daily (BID) or placebo for 84 days. Vascular inflammation was assessed by PET-CT imaging of the carotid arteries and aorta using ^18fluorodeoxyglucose (FDG); the artery with the highest average maximum tissue-to-background ratio (TBR) at baseline (TBR>1.6). 92% of the subjects were white, 86% male, the mean age was 63.8 years (SD 6.13). 72% were current or ex-smokers. […] All subjects were on a stable dose of statin for at least 3 months prior to the first dose and continued on this dose of statin throughout the study.

The nature of data set [2]: physchem. It is filed as physicochemical. An excerpt: There is therefore a need for a liquid formulation of said compound that is suitable for this mode of administration which solves this technical problem.
Data set [3] relates to in-vivo macrophage activity in the carotid arteries and aorta of subjects with established atherosclerosis. The experiment in a line: In-vivo macrophage activity study, FDG-PET/CT imaging. The settings on record: 84 days. More on the design: species or system human. An excerpt: Macrophage activity and presence are critical features to the vulnerability of plaque in the vasculature. The pivotal nature of p38 MAPK in signaling stress, and its presence in macrophages can be monitored by labeling glucose (fluorodeoxyglucose), an otherwise key nutrient for macrophage activity, and observing its uptake in macrophages using […]. […] The primary objective was to measure in-vivo macrophage activity, by fluorodeoxyglucose (FDG) positron emission tomography (PET)/computed tomography (CT) imaging, in carotid arteries and aorta following a 12-week treatment with losmapimod (7.5 mg once daily [QD] and 7.5 mg twice daily [BID]), in the setting of chronic statin therapy, as compared to placebo. Secondary objectives included safety and tolerability of 12 weeks of dosing with losmapimod (7.5 mg QD or 7.5 mg BID). Inflammatory biomarkers and the effect of losmapimod 7.5 mg QD vs 7.5 mg BID on in-vivo macrophage activity, as assessed by FDG-PET/CT imaging. Ninety-nine patients with vascular inflammation on statins were randomised to losmapimod 7.5 mg once daily (QD), twice daily (BID) or placebo for 84 days. Vascular inflammation was assessed by PET-CT imaging of the carotid arteries and aorta using ^18fluorodeoxyglucose (FDG); the artery with the highest average maximum tissue-to-background ratio (TBR) at baseline (TBR>1.6). […]

The subject of data set [4] is hypercholerolesteric patients. Particulars: Circulation. 2011;123:515-523; cited from earlier work.
Data set [5] has as its system patients with acute coronary syndrome (non-ST elevation). The experiment in a line: Recurrent infarction, infarct size and cardiac function in subjects with myocardial infarction (Example 4 study). It counts as in vivo, human. The protocol: (§1) In a randomised, double-blind, placebo controlled study, patients (n=approximately 500) who were admitted to a hospital with the diagnosis of acute coronary syndrome (specifically with non-ST elevation EKG findings upon entry) were provided an oral dose of losmapimod (7.5 mg or 15 mg and thereafter followed by 7.5 mg every 12 hours) or placebo for a period of 3 months.

Data set [6] relates to CRP and IL6 levels. The experiment in a line: Inflammatory markers in subjects with myocardial infarction (Example 4 study). The settings on record: oral 7.5 mg or 15 mg then 7.5 mg every 12 hours; average 4.5 day initial hospital stay, setting of stent placement. It counts as in vivo, human. The protocol: as §1

In brackets after ≈: the same amount, converted by molar mass.

One may read the solubility as how much of the substance goes into solution per volume. Low readings indicate a poorly soluble substance, high ones a readily soluble substance.

For `Cc1c(F)cc(C(=O)NC2CC2)cc1-c1ccc(C(=O)NCC(C)(C)C)cn1` [losmapimod, 6-(5-cyclopropylcarbamoyl-3-fluoro-2-methyl-phenyl)-N-(2,2-dimethylpropyl)-nicotinamide], in data set [1], the “high sensitivity C-reactive protein, reduction versus placebo” value is reported as −28%. Besides, in data set [2], the solubility is about 5 µg/mL (≈ 13 µM). The “proportion of active slices (TBR≧1.6), change from baseline” value in data set [3] (7.5 mg BID, placebo −6.1%, p=0.002, exploratory analysis) is −9.8%. Further, the “change from baseline to day 84 in average maximum TBR (primary end point)” value in data set [3] (losmapimod versus placebo, patients on statins) was “not significantly different”. Further, the “nitric oxide mediated vasodilatation” value in data set [4] is “improves”. The “size of the infarct by magnetic resonance image, lower versus placebo” value in data set [5] (MRI 4-5 days after the index infarct, smaller cohort n=approximately 90) is given as over 20%. In addition, in data set [5] (after 12 weeks of treatment), the “BNP levels (surrogate for cardiac function), reduction” value is given as over 20%. Also, the “size of the index infarct by release of cardiac muscle enzymes” value in data set [5] (enzymes measured every 8 hours, treated versus placebo group) is “unchanged”. The “three month MR imaging of cardiac function and dimensions” value in data set [5] (three months of treatment) was “improved function and smaller overall cardiac dimensions”. The “number of recurrent myocardial infarctions (or episodes of ACS), lower with treatment compared to placebo” value in data set [5] (within the first few months beyond the index infarct, not statistically significant) was “over 15%”. Besides, in data set [6], the “CRP level, lower with treatment compared to placebo” value is over 50% and the “IL6 level, lower with treatment compared to placebo” value was over 50%.

The values are drawn from patent publication US20160367542A1, “NICOTINAMIDE DERIVATE IN THE TREATMENT OF ACUTE CORONARY SYNDROME” (GlaxoSmithKline LLC, priority 2012, published 2016).
